# Data reported in a melting point compilation (Tetko et al.; mined from patent text by program, amines drawn as free bases though some values may be those of a salt).
row,melting point [°C],Compound
1,225 to 228,Cn1nnnc1-c1cn(C)c2cc(OC(F)F)ccc2c1=O
2,137 to 138,COc1ccc(-c2ccc(C=O)c3ccccc23)cc1F
3,108 to 110,O=C1CN(c2nccc(Oc3ccc(NC(=O)c4cc(F)cc(N5CCOCC5)c4)c4ccccc34)n2)CCN1
4,174 to 177,CC(C)Oc1ccc2c(c1)C(=O)c1ccc(C(=O)O)cc1CC2
5,237 to 239,Nc1ncc(-c2ccc([N+](=O)[O-])c(Cl)c2Cl)c(N)n1
6,275 to 277,O=C(c1ccccc1)N1CCc2c(c(=O)[nH]c3ccccc23)C1
7,215 to 216,O=C(O)c1cc(-n2c(-c3ccc(Br)cc3)cc3c2CCC3)ccc1O
8,102 to 103,CCOC(=O)/C=C/c1ccc(OCCC2OCCO2)cc1Oc1ncc(C(F)(F)F)cc1Cl
9,111 to 112,CC1(C)CC(=O)Nc2ccccc21
10,58 to 60,CC1(C)COC(C(=O)O)OC1
11,153 to 156,CNCCOc1cccc2c1CC(=O)N2
12,244,NS(=O)(=O)c1cccc(-c2cc(-c3nc(-c4cccc(C(F)(F)F)c4)cc(C(F)(F)F)n3)ccn2)c1
13,169 to 170,Cc1nc(C#N)sc1-c1ccncc1
14,110 to 112,CC(=O)NCSC[C@H](NC(=O)OC(C)(C)C)C(=O)O
15,150 to 151,Nc1ccc2c(c1)S(=O)(=O)N(CCCCN1CCN(c3ncccn3)CC1)C2=O
16,87 to 90,CCOC(=O)c1nc(-c2cccc(Br)c2)ns1
17,148 to 161,Cc1noc2cc(OC3SCC(O)C(O)C3O)ccc12 (configuration not stated)
18,133 to 134,COC(=O)c1ccc(OCC(O)c2ccc3c(c2)C(C)(C)CCC3(C)C)cc1O (configuration not stated)
19,203 to 206,CCNc1cccnc1N1CCN(Cc2cc(C)c(O)c(C)c2)CC1
20,266 to 268,"O=C1c2ccccc2C(=O)N1CC(=O)N1c2ccc(F)cc2N(Cc2ccccc2)C(=O)C2CCC[C@H]21 (single isomer, unassigned)"
21,132 to 134,Cc1c(C)c2c(c(C)c1NC(=O)CC(C)(C)C)C(c1ccc(C(C)(C)O)cc1)CO2 (configuration not stated)
22,173 to 174,COc1cc2ncnc(N3CCC(C(C)(O)CN4CCCS4(=O)=O)CC3)c2cc1OC (configuration not stated)
23,124 to 127,CC(C)C(C(=O)O)c1ccc([N+](=O)[O-])cc1 (configuration not stated)
24,107 to 109,CC1(C)OCCN1C(=O)C=Cc1ccccc1
25,75 to 76,CCc1cc(Oc2ccc([C@H](O)[C@@H](Cc3cccc(OC(F)(F)C(F)F)c3)C(=O)O)cc2)ccc1Cl (racemic)

row,melting point [°C],Compound
1,153 to 155,O=C(O)c1cc(-c2nccs2)[nH]c1C(CC1CCOCC1)c1ccc(S(=O)(=O)C2CC2)cc1 (configuration not stated)
2,162 to 163,O=C(c1ccc(C2CCCCC2)cc1)[C@H]1C[C@H]1C(=O)O (relative stereo)
3,93 to 95,Oc1c(C/C=C/c2ccc(OCc3ccccc3)c(OCc3ccccc3)c2)c(OCc2ccccc2)cc(OCc2ccccc2)c1Cc1ccccc1
4,109,C#CCCCOC(=O)NC(=O)C(c1ccccc1)c1ccccc1
5,128 to 133,Cc1ccc(S(=O)(=O)Nc2c(CCCCCCC(=O)O)ccc3ccccc23)cc1
6,108 to 110,O=C(O)c1ccc(F)c(C(F)(F)F)c1F
7,67 to 68,CC(=O)OC1CSC(Oc2cc(-c3cccnc3)cnc2F)C(OC(C)=O)C1OC(C)=O (configuration not stated)
8,205,O=c1[nH]c2ncc(-c3cccnc3)nc2n1CC1CCCCC1
9,198,CC(O)C(=O)c1ccc(C(=O)Nc2ccccc2N)c(N)c1 (configuration not stated)
10,235,CCNC(=O)Nc1cnc2ccc(Nc3ccc(C)cc3)nc2n1
11,201 to 202,CN(C)c1nc(N)c(C#N)nc1C#N
12,84 to 86,CCC(=O)N1CCCSC1=C[N+](=O)[O-]
13,245 to 248,Cc1cc2c(cc1Cl)C(NCCC1CCN(C(=O)OC(C)(C)C)CC1)(c1ccccc1Cl)C(=O)N2 (configuration not stated)
14,90,CCOC(=O)Cc1cc2c(N)cccc2cn1
15,124 to 125,Cn1cc(CC(=O)O)c(OCc2cc(OCc3ccc4ccccc4n3)no2)n1
16,222 to 224,O=S(=O)(c1nc[nH]n1)c1ccc(C(F)(F)F)cc1Cl
17,191 to 192,N#CC(N)=C(C#N)NCc1cnn(-c2c(Cl)cc(C(F)(F)F)cc2Cl)n1
18,92 to 94,CCCc1c(O)cccc1Oc1cc(F)ccc1C(=O)OC
19,297 to 299,COc1ccc(CSc2cccc3c2C(=O)c2cccc(SCc4ccc(OC)cc4)c2C3=O)cc1
20,120,CC(C)(C)NCC(O)c1ccc(OCc2ccccc2)c(C(N)=O)c1 (configuration not stated)
21,104 to 106,CCCC1c2c(ccc(C(C)=O)c2O)OC1COc1ccc(CC(=O)O)cc1 (configuration not stated)
22,121 to 122,CCOC(=O)Nc1cccc(C(=O)C=CN(C)C)c1
23,265,O=C(NN=Cc1c(O)ccc2ccccc12)c1ccccc1O
24,> 260,COc1cc(OC)c(-c2c(C)noc2C)cc1C=CC(=O)c1ccc(C(=O)O)cc1
25,100 to 102,COc1ccc2c(c1)Sc1ccc(Cl)cc1C(O)C2 (configuration not stated)

# The remaining lines, values behind:
row,Compound,melting point [°C]
1,O=[N+]([O-])c1ccc(O)cc1OCCO,167
2,OC1CSC(Oc2cccnc2-c2ccncc2)C(O)C1O (configuration not stated),129
3,CN(C)Cc1ccnc(CSCCNc2ncc(Cc3ccn(C)c(=O)c3)c(=O)[nH]2)c1,137 to 139
4,CC(C)(C#N)c1ccc(C(=O)c2cccs2)cc1,139
5,CCOC1=NS(=O)(=O)c2ccc([N+](=O)[O-])cc21,151 to 154
6,O=C1OC(=O)[C@@H](Cl)[C@@H]1Cl (relative stereo),90 to 92
7,Cc1cccc(C)c1-n1cnc(OC(C)C(=O)O)n1 (configuration not stated),178 to 180
8,CCOc1cc2ncc(C#N)c(NCc3ccc(F)c(F)c3)c2cc1OCC,167 to 169
9,CC1(C(F)(F)F)C=C(C(=O)NCCC#N)c2cc([N+](=O)[O-])ccc2O1 (configuration not stated),191 to 193
10,CC1(C)CCSc2ccc(C(O)COc3ccc(C(=O)O)c(O)c3)cc21 (configuration not stated),166 to 167
11,COc1ccc(-c2c[nH]c(-c3nc(-c4ccco4)c(C(=O)C4CCOCC4)s3)n2)cc1,178 to 180
12,CC(=O)N1CCC[C@H]1C(=O)Nc1ccc(S(N)(=O)=O)cc1,283 to 285
13,N#Cc1ccc(N2C(=O)[C@@H]3[C@H](O)CCN3C2=O)c2c1OCCO2,196 to 197
14,CCOC(=O)c1nn(C)c(-c2ccccc2)c1S(N)(=O)=O,141 to 144
15,O=C(Cc1ccnc2c1NC(=O)c1cccnc1N2C1CC1)c1ccccc1,195 to 197
16,Cc1nc2c(C)cccn2c(=O)c1CCN1CC=C(c2c[nH]c3ccc(F)cc23)CC1,229 to 230
17,CCC1(CCCCCl)C(=O)Nc2ccc(Cl)cc21 (configuration not stated),116 to 117
18,O=C(O)CCn1nc(-c2c(-c3ccccc3)nn3ccccc23)ccc1=O,156
19,CC(C)Oc1cc(CCCOc2nn(C)cc2CC(=O)O)n(Cc2ccc(Cl)cc2Cl)n1,96 to 97
20,CC(=O)Oc1ccc(NC(=O)c2ccc(Sc3cc4c(cc3C)C(C)(C)CCC4(C)C)cc2)cc1,186 to 187
21,OCCCCc1ccc(N2CCOCC2)cc1,51 to 52
22,COC(=O)c1ccc(Nc2ccc(C(=O)OC)cc2)cc1,174 to 175
23,O=C(O)c1cc(-c2ccccc2)c2ccccc2n1,170 to 171
24,Fc1ccc2nc(-c3ccc(Cl)cc3)cc(Cl)c2c1,169 to 172
25,C#CCOCc1c(C)nc2c(OCc3ccccc3C)cccn12,87 to 89
26,O=c1c2cc(Cl)cc(Br)c2ncn1CCCN1CC=C(c2c[nH]c3ccccc23)CC1,192

row,Compound,melting point [°C]
1,CN(C)C=CC(=O)c1ccccc1[N+](=O)[O-],118 to 121
2,C=CCN(CCC)C1COc2cccc(O)c2C1 (configuration not stated),78 to 80
3,CN(C)S(=O)(=O)c1ccc2c(c1)CC(Br)C2=O (configuration not stated),115
4,CC1(C(=O)O)CCc2c(-c3ccc(Cl)cc3)noc2C1 (configuration not stated),169 to 170
5,CCc1[nH]c2cc(F)ccc2c1C1=CCNCC1,194 to 196
6,CCCCN=C(CS(C)=O)c1cccc(OC)c1O (configuration not stated),125 to 127
7,Cc1cccc(C)c1N1Cc2ccccc2P1(C)=O (configuration not stated),128 to 129
8,CC(C)(C)c1ccc(CCC2CO2)cc1NC(=O)CC1c2ccccc2Oc2ccccc21 (configuration not stated),156 to 157
9,CCOC(=O)C1=C(C)NC(C)=C(C(=O)OC)C1c1ccc([N+](=O)[O-])cc1 (configuration not stated),150
10,CCN(CC)CCOC(=N)N1CCC(c2nsc3ccccc23)CC1,84 to 86
11,CCCCCC(=O)CCCC(=O)O,54 to 55
12,CCCCCCCCCCCCCCCCSCCCCCCCCCCC(=O)NN,108
13,Cc1cccc(C(=O)c2ccc(Cl)cc2)c1,108
14,CC(C)(CNC(=O)CSCC(=O)O)SN=O,47 to 51
15,COc1cccc(CNc2ncnc3c2sc2nc(N4CCOCC4)c4c(c23)CC(C)(C)CC4)c1OC,219 to 220
16,CCCn1cc(Cc2ccc(C(=O)O)cc2OC)c2cc(CCCC(=O)N(C)C)ccc21,117 to 118
17,CC(=O)C1=C(O)C(=C(C)Nc2ccc(NC(N)=O)cc2)C(=O)OC1=O,250 to 253
18,CS(=O)c1cc(CCC(=O)OC(C)(C)C)nc(-c2nc(=O)c3ccccc3s2)c1 (configuration not stated),160
19,CC(C)(OCc1nn(Cc2ccccc2)c2ccccc12)C(=O)NO,115 to 116
20,NS(=O)(=O)c1cccc(-c2noc(-c3cnn4c(C(F)(F)F)cc(-c5ccc(C(F)(F)F)cc5)nc34)n2)c1,262
21,CC1(Cc2ccccc2)CCCNC1=O (configuration not stated),76 to 78
22,CS(=O)(=O)Nc1ccc(Nc2nc(NC3CCCC3)c3nc[nH]c3n2)cc1,261 to 265
23,Cc1cc(Cl)cc(C(=O)NC(C)C)c1NC(=O)c1cc(Br)nn1N1C=CC=C(Cl)C1,159 to 161
24,COc1ccc(-c2cc(=O)n(CCc3ccc(Cl)cc3Cl)nc2-c2ccc(OC)cc2)cc1,119 to 120
25,c1ccc(-c2nc(-c3ccccc3)c(-c3ccccc3)s2)cc1,84 to 85.5
26,OC(c1cc(F)ccc1F)c1cc(Cl)ncc1Cl (configuration not stated),160 to 161
